Source: patent US20220259202A1, “1-(4-(AMINOMETHYL)BENZYL)-2-BUTYL-2H-PYRAZOLO[3,4-C]QUINOLIN-4-AMINE DERIVATIVES AND RELATED COMPOUNDS AS TOLL-LIKE RECEPTOR (TLR) 7/8 AGONISTS, AS WELL AS ANTIBODY DRUG CONJUGATES THEREOF FOR USE IN CANCER THERAPY AND DIAGNOSIS” (SUTRO BIOPHARMA, INC., priority 2019, published 2022)

How the values were obtained:
human and mouse TLRs = assay: HEK293 SEAP reporter panel of human and mouse TLRs, specificity; type: cell-based; settings: 16 hrs
Excerpt: In this example, the activity of the Compound 1 to stimulate different human and mouse TLR pathways was investigated on HEK293 cells transfected with inducible SEAP (secreted embryonic alkaline phosphatase) reporter genes and also expressing different human TLRs (TLR2, TLR3, TLR4, TLR5, TLR7, TLR8, TLRS) or mouse TLRs (TLR2, TLR3, TLR4, TLR5, TLR7, TLR8, TLR13). Compound A
HEK293 reporter cell lines were purchased from Invivogen and cell lines were maintained in manufacture recommended culture medium with required supplemental antibiotics. On the day of assay, the cells were harvested with Accutase and counted by the Vi-CELL Cell Viability Analyzers. Cells were re-suspended in HEK blue detection medium and a total of 10000 cells were seeded in each well of a 384-well flat bottom plate. […] Assay plates were cultured at 37° C. in a CO2 incubator for 16 hrs. HEK-Blue™ Detection medium changes to a purple/blue color in the presence of secreted SEAP, which can be detected by spectrophotometry at 620-655 nm. Data was fitted with non-linear regression analysis, using a log(inhibitor) vs. response-variable slope, 3-parameter fit with GraphPad Prism.

human TLR7 = target: T1, human TLR7 (Homo sapiens, UniProt Q9NYK1); assay: HEK293 SEAP reporter assay, human TLR7 (Biological Example 1); type: cell-based; settings: HEK293-humanTLR7 reporter cells, 4 hrs; read-out: hTLR7 EC50
T1 construct: host or cells: HEK293
T1 sequence (Q9NYK1 27-1049): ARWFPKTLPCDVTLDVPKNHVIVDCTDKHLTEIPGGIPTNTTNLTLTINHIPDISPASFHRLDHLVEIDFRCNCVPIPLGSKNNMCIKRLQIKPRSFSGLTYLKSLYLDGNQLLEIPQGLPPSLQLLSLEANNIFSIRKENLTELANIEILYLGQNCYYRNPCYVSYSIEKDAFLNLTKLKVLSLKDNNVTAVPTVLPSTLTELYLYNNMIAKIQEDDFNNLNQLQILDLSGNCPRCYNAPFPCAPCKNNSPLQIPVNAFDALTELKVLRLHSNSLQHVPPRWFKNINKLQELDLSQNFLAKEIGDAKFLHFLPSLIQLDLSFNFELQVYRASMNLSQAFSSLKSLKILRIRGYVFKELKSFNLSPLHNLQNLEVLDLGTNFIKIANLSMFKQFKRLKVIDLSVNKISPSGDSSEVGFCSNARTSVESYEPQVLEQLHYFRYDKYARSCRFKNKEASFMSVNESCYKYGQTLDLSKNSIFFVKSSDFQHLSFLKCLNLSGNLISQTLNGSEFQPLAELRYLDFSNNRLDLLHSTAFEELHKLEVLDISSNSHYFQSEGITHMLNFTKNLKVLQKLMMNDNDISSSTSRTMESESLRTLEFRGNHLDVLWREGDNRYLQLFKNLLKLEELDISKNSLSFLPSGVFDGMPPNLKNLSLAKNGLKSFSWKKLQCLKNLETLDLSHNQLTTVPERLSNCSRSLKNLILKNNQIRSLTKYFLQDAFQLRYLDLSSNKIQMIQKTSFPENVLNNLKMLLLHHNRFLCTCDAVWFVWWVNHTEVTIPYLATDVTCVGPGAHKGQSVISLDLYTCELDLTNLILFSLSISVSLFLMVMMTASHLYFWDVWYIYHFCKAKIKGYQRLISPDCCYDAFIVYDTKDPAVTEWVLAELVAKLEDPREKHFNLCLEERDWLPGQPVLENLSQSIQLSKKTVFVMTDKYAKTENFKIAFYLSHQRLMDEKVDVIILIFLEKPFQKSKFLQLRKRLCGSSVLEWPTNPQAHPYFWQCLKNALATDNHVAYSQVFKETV
Protocol: In this example, the activity of the TLR7 agonists to activate human TLR7, hTLR7 (or human TLR8, hTLR8, or mouse TLR7, mTLR7) pathway was evaluated on HEK293 reporter cells transfected with human TLR7 (or mouse TLR7 or human TLR8) and an inducible SEAP (secreted embryonic alkaline phosphatase) reporter gene. The SEAP reporter gene is placed under the control of the IFN-β minimal promoter fused to five NF-κB and AP-1-binding sites. Stimulation with a TLR7 agonist activates NF-KB and AP-1 which induces the production of SEAP. Levels of SEAP was determined with HEK-Blue Detection medium.
HEK293-humanTLR7, HEK293-mouseTLR7 and HEK293-humanTLR8 reporter cell lines were purchased from Invivogen and cell lines were maintained in manufacture recommended culture medium with required supplemental antibiotics. On the day of assay, the cells were harvested with Accutase and counted by the Vi-CELL Cell Viability Analyzers. Cells were re-suspended in HEK blue detection medium and a total of 10000 cells were seeded in each well of a 384-well flat bottom plate. Serial dilutions of TLR7 agonists free drugs (1:3 serial dilution starting from 5 μM) was added into treatment wells. Assay plates were cultured at 37° C. in a CO2 incubator for […]. HEK-Blue™ Detection medium changes to a purple/blue color in the presence of secreted SEAP, which can be detected by spectrophotometry at 620-655 nm. […]

- EC50 (human TLR7): 46.7 nM
SMILES: CCCCn1nc2c(N)nc3ccccc3c2c1Cc1ccc(CN)cc1 [Compound 1, 1-(4-(aminomethyl)benzyl)-2-butyl-2H-pyrazolo[3,4-c]quinolin-4-amine]
- specificity among human and mouse TLRs (human and mouse TLRs): very specific to human and mouse TLR7 and human TLR8
